According to ChEMBL document CHEMBL1127131, “Penems containing amino acid derived substituents at C-2” (1993):
Converted amounts (≈) assume the structure as drawn.

Experiments:
Bacillus subtilis = test: Minimum inhibitory concentration required for antibacterial activity against Bacillus subtilis; format: functional
Escherichia coli = test: Minimum inhibitory concentration required for antibacterial activity against Escherichia coli; format: functional
Enterobacter = test: Minimum inhibitory concentration required for antibacterial activity against Enterobacter; format: functional
Klebsiella = test: Minimum inhibitory concentration required for antibacterial activity against Klebsiella; format: functional
Providencia = test: Minimum inhibitory concentration required for antibacterial activity against Providencia; format: functional
Salmonella = test: Minimum inhibitory concentration required for antibacterial activity against Salmonella; format: functional
Micrococcus luteus = test: Minimum inhibitory concentration required for antibacterial activity against Sarcina luteus; format: functional, sarcinea luteus
Serratia [1] = test: Minimum inhibitory concentration required for antibacterial activity against Serratia; format: functional
Staphylococcus = test: Minimum inhibitory concentration required for antibacterial activity against Staphylococcus; format: functional
Enterococcus faecalis = test: Minimum inhibitory required for antibacterial activity against Streptococcus faecalis; format: functional
[2] = Gram-positive vitro for its antibacterial activity of Geometric Mean MIC (ug/mL); format: functional
Morganella = test: Minimum inhibitory concentration required for antibacterial activity against Morganella; format: functional
[3] = Gram-negative geometric mean MIC of antibacterial activity; format: functional
[4] = Gram-positive geometric mean MIC of antibacterial activity; format: functional
[5] = Gram-positive geometric mean MIC for antibacterial activity (ug/mL); format: functional
Serratia [6] = test: Minimum inhibitory concentration for antibacterial activity against Serratia; format: functional

| SMILES | MIC (Bacillus subtilis) [µg/mL] | MIC (Escherichia coli) [µg/mL] | MIC (Enterobacter) [µg/mL] | MIC (Klebsiella) [µg/mL] | MIC (Providencia) [µg/mL] | MIC (Salmonella) [µg/mL] | MIC (Micrococcus luteus) [µg/mL] | MIC (Serratia [1]) [µg/mL] | MIC (Staphylococcus) [µg/mL] | MIC (Enterococcus faecalis) [µg/mL] | MIC [2] [µg/mL] | MIC (Morganella) [µg/mL] | MIC [3] [µg/mL] | MIC [4] [µg/mL] | MIC [5] [µg/mL] | MIC (Serratia [6]) [µg/mL] |
| --- | --- | --- | --- | --- | --- | --- | --- | --- | --- | --- | --- | --- | --- | --- | --- | --- |
| CSC[C@H](N)C1=C(C(=O)O)N2C(=O)[C@H]([C@@H](C)O)[C@H]2S1 | 0.5 (≈ 1.64 µM) | 12.4 (≈ 40.9 µM) | 20.2 (≈ 66.2 µM) | 8.57 (≈ 28.2 µM) | 97 (≈ 319 µM) | 5.04 (≈ 16.6 µM) | 0.25 (≈ 0.821 µM) | 22.6 (≈ 74.3 µM) | 0.26 (≈ 0.854 µM) | 90.5 (≈ 297 µM) | 0.45 (≈ 1.48 µM) | 128 (≈ 421 µM) | 16.3 |  |  |  |
| C[C@@H](O)[C@H]1C(=O)N2C(C(=O)O)=C(SC[C@@H](N)C(=O)O)S[C@H]12 | 0.5 (≈ 1.5 µM) | 0.25 (≈ 0.748 µM) | 0.76 (≈ 2.27 µM) | 0.17 (≈ 0.508 µM) | 5.66 (≈ 16.9 µM) | 0.16 (≈ 0.479 µM) | 4 (≈ 12 µM) | 1.08 (≈ 3.23 µM) | 1.82 (≈ 5.44 µM) | 45.2 (≈ 135 µM) |  |  | 0.49 | 3.01 |  |  |
| C[C@@H](O)[C@H]1C(=O)N2C(C(=O)O)=C([C@H](N)CCC(=O)O)S[C@H]12 | 0.25 (≈ 0.79 µM) | 3.11 (≈ 9.83 µM) | 6.35 (≈ 20.1 µM) | 3.73 (≈ 11.8 µM) | 16 (≈ 50.6 µM) | 4 (≈ 12.6 µM) | 2 (≈ 6.32 µM) | 13.4 (≈ 42.5 µM) | 0.735 (≈ 2.32 µM) | 16 (≈ 50.6 µM) |  | 16 (≈ 50.6 µM) | 5.4 |  | 1 (≈ 3.16 µM) |  |
| CSC[C@@H](N)C1=C(C(=O)O)N2C(=O)[C@H]([C@@H](C)O)[C@H]2S1 | 0.125 (≈ 0.411 µM) | 0.707 (≈ 2.32 µM) | 2 (≈ 6.57 µM) | 0.595 (≈ 1.95 µM) | 9.19 (≈ 30.2 µM) | 0.794 (≈ 2.61 µM) | 2 (≈ 6.57 µM) | 2.83 (≈ 9.3 µM) | 0.099 (≈ 0.325 µM) | 16 (≈ 52.6 µM) |  | 2 (≈ 6.57 µM) | 1.33 |  | 0.18 (≈ 0.591 µM) |  |
| C[C@@H](O)[C@H]1C(=O)N2C(C(=O)O)=C(CSC[C@H](N)C(=O)O)S[C@H]12 | 0.5 (≈ 1.44 µM) | 4 (≈ 11.5 µM) | 10.1 (≈ 28.9 µM) | 4.93 (≈ 14.2 µM) | 13.9 (≈ 40 µM) | 3.18 (≈ 9.13 µM) | 0.5 (≈ 1.44 µM) |  | 0.707 (≈ 2.03 µM) | 22.6 (≈ 65 µM) |  | 8 (≈ 23 µM) | 6.4 |  | 0.94 (≈ 2.7 µM) | 19 (≈ 54.6 µM) |
| CSCC[C@@H](N)C1=C(C(=O)O)N2C(=O)[C@H]([C@@H](C)O)[C@H]2S1 | 0.125 (≈ 0.393 µM) | 0.441 (≈ 1.38 µM) | 1 (≈ 3.14 µM) | 0.5 (≈ 1.57 µM) | 5.28 (≈ 16.6 µM) | 0.397 (≈ 1.25 µM) | 0.125 (≈ 0.393 µM) | 2.83 (≈ 8.89 µM) | 0.07 (≈ 0.22 µM) | 8.02 (≈ 25.2 µM) |  | 4 (≈ 12.6 µM) | 0.13 |  | 0.88 (≈ 2.76 µM) |  |
| C[C@@H](O)[C@H]1C(=O)N2C(C(=O)O)=C(CC[C@H](N)C(=O)O)S[C@H]12 | 2 (≈ 6.32 µM) | 9.67 (≈ 30.6 µM) | 16 (≈ 50.6 µM) | 12.1 (≈ 38.3 µM) | 55.7 (≈ 176 µM) | 11.3 (≈ 35.8 µM) | 8 (≈ 25.3 µM) | 45.3 (≈ 143 µM) | 2.33 (≈ 7.37 µM) | 90.5 (≈ 286 µM) |  | 64 (≈ 202 µM) | 17.3 |  | 3.4 (≈ 10.7 µM) |  |
| C[C@@H](O)[C@H]1C(=O)N2C(C(=O)O)=C(COC(N)=O)S[C@H]12 [RITIPENEM] | 0.06 (≈ 0.208 µM) | 0.68 (≈ 2.36 µM) | 3.2 (≈ 11.1 µM) | 0.81 (≈ 2.81 µM) | 2.3 (≈ 7.98 µM) | 0.5 (≈ 1.73 µM) |  |  | 0.12 (≈ 0.416 µM) | 5.7 (≈ 19.8 µM) |  | 2 (≈ 6.94 µM) | 1.2 |  | 0.16 (≈ 0.555 µM) | 5.7 (≈ 19.8 µM) |
| CSCC[C@H](N)C1=C(C(=O)O)N2C(=O)[C@H]([C@@H](C)O)[C@H]2S1 | 4 (≈ 12.6 µM) | 11.7 (≈ 36.7 µM) | 20.2 (≈ 63.3 µM) | 12.1 (≈ 38.1 µM) | 55.7 (≈ 175 µM) | 10.1 (≈ 31.7 µM) | 0.031 (≈ 0.0974 µM) | 38.1 (≈ 120 µM) | 0.214 (≈ 0.672 µM) | 64 (≈ 201 µM) |  | 64.1 (≈ 201 µM) | 17.6 |  | 0.37 (≈ 1.16 µM) |  |
| C[C@@H](N)C1=C(C(=O)O)N2C(=O)[C@H]([C@@H](C)O)[C@H]2S1 |  | 11.7 (≈ 45.2 µM) | 10.1 (≈ 39 µM) | 9.85 (≈ 38.1 µM) | 55.7 (≈ 216 µM) | 5.04 (≈ 19.5 µM) |  | 26.9 (≈ 104 µM) | 0.229 (≈ 0.887 µM) |  |  | 32 (≈ 124 µM) | 14.3 |  | 0.29 (≈ 1.12 µM) |  |
| C[C@H](N)C1=C(C(=O)O)N2C(=O)[C@H]([C@@H](C)O)[C@H]2S1 | 1 (≈ 3.87 µM) | 21.9 (≈ 84.9 µM) | 20.2 (≈ 78 µM) | 17.1 (≈ 66.4 µM) | 64 (≈ 248 µM) | 10.1 (≈ 39 µM) | 0.5 (≈ 1.94 µM) | 45.3 (≈ 175 µM) | 0.26 (≈ 1.01 µM) | 64 (≈ 248 µM) |  | 64 (≈ 248 µM) | 24.6 |  | 0.47 (≈ 1.82 µM) |  |
| C[C@@H](O)[C@H]1C(=O)N2C(C(=O)O)=C(CSC[C@@H](N)C(=O)O)S[C@H]12 | 0.25 (≈ 0.718 µM) | 0.284 (≈ 0.815 µM) | 0.63 (≈ 1.81 µM) | 0.308 (≈ 0.884 µM) | 2 (≈ 5.74 µM) | 0.25 (≈ 0.718 µM) | 0.5 (≈ 1.44 µM) |  | 0.852 (≈ 2.45 µM) | 16 (≈ 45.9 µM) |  | 2 (≈ 5.74 µM) | 0.51 |  | 1.1 (≈ 3.16 µM) | 1.68 (≈ 4.82 µM) |
| C[C@@H](O)[C@H]1C(=O)N2C(C(=O)O)=C(CC[C@@H](N)C(=O)O)S[C@H]12 | 1.01 (≈ 3.19 µM) | 2.42 (≈ 7.65 µM) | 2.52 (≈ 7.97 µM) | 2.83 (≈ 8.95 µM) | 18.4 (≈ 58.1 µM) | 1 (≈ 3.16 µM) | 4 (≈ 12.6 µM) | 16 (≈ 50.6 µM) | 2.08 (≈ 6.58 µM) | 45.3 (≈ 143 µM) |  | 16 (≈ 50.6 µM) | 4 |  | 2.7 (≈ 8.54 µM) |  |
| C[C@@H](O)[C@H]1C(=O)N2C(C(=O)O)=C(SCCOC(N)=O)S[C@H]12 [Sch-34343] | 0.06 (≈ 0.179 µM) | 0.3 (≈ 0.897 µM) | 1.3 (≈ 3.89 µM) | 0.35 (≈ 1.05 µM) | 0.87 (≈ 2.6 µM) | 0.25 (≈ 0.748 µM) |  |  | 0.11 (≈ 0.329 µM) | 5.7 (≈ 17 µM) |  | 2 (≈ 5.98 µM) | 0.57 |  | 0.15 (≈ 0.449 µM) | 4.8 (≈ 14.4 µM) |
| C[C@@H](O)[C@H]1C(=O)N2C(C(=O)O)=C(SC[C@H](N)C(=O)O)S[C@H]12 | 2.83 (≈ 8.46 µM) | 6.46 (≈ 19.3 µM) | 16 (≈ 47.9 µM) | 4 (≈ 12 µM) | 42.7 (≈ 128 µM) | 5.28 (≈ 15.8 µM) | 4 (≈ 12 µM) | 17.3 (≈ 51.7 µM) | 1.94 (≈ 5.8 µM) | 128 (≈ 383 µM) |  |  | 16 |  | 4 (≈ 12 µM) |  |
| C[C@@H](O)[C@H]1C(=O)N2C(C(=O)O)=C(CN)S[C@H]12 | 0.5 (≈ 2.05 µM) | 5.15 (≈ 21.1 µM) | 8 (≈ 32.8 µM) | 6.06 (≈ 24.8 µM) | 8 (≈ 32.8 µM) | 3.18 (≈ 13 µM) | 0.5 (≈ 2.05 µM) |  | 0.153 (≈ 0.626 µM) | 32 (≈ 131 µM) |  | 4 (≈ 16.4 µM) | 6.27 |  | 0.28 (≈ 1.15 µM) | 13.4 (≈ 55.1 µM) |
